In ChEMBL document CHEMBL4627251, “Identification of potent pyrazole based APELIN receptor (APJ) agonists” (Bioorg Med Chem, 2020):

Tests used:
[1] = target: T1, Type-1 angiotensin II receptor (Homo sapiens, UniProt P30556); assay: Agonist activity at human AGTR1 stably expressed in CHO cells assessed as increase in intracellular calcium mobilization measured at 1 sec intervals for 90 sec by calcium 5 dye based FLIPR assay; format: functional, cell-based
T1 sequence (P30556 whole entry): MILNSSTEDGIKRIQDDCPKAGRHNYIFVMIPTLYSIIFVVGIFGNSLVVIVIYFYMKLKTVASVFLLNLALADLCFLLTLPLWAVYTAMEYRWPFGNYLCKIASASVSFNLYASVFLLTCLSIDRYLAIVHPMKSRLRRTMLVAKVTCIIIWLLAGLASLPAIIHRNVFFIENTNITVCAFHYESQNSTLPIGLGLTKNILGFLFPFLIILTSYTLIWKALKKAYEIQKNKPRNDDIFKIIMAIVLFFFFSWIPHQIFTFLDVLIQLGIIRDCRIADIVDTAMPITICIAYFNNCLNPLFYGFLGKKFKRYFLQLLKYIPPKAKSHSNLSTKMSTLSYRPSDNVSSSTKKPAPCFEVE

Apelin receptor [2] = target: T2, Apelin receptor (Homo sapiens, UniProt P35414)
T2 sequence (P35414 whole entry): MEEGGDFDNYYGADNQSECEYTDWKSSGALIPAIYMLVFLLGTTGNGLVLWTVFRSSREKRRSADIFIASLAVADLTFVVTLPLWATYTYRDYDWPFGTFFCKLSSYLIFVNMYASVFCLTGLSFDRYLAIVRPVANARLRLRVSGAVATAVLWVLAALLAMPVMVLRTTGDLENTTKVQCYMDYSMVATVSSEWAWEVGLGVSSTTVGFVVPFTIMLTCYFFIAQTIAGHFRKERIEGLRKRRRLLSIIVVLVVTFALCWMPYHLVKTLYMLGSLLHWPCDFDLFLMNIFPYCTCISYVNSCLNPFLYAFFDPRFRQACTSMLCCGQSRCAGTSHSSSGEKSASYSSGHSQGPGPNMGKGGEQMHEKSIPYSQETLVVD
Description: Agonist activity at human APJ receptor stably expressed in CHOK1 cells assessed as induction of beta-arrestin 2 recruitment incubated for 90 mins by PathHunter assay

Apelin receptor [3] = target: T2, Apelin receptor; remark: listed apart in the source
Description: Agonist activity at human APJ receptor stably expressed in CHO cells assessed as inhibition of forskolin-induced cAMP accumulation measured after 30 mins by Eu-cAMP tracer based TR-FRET assay

Apelin receptor [4] = target: T2, Apelin receptor; remark: listed apart in the source
Description: Agonist activity at human APJ receptor stably expressed in CHO cells co-expressing Galphaq16 assessed as increase in intracellular calcium mobilization measured at 1 sec intervals for 90 secs by calcium 5 dye based FLIPR assay

SMILES	EC50 [1] [µM]	further results
COc1cccc(OC)c1-c1cc(C(=O)N[C@@H](CCC2CCCCC2)CC(=O)NC2CCC2)nn1CC(C)C	> 10	
COc1cccc(OC)c1-c1cc(C(=O)N[C@@H](CCC2CCCCC2)CC(=O)NC2CCC2)nn1C1CCCCC1	> 10	
COc1cccc(OC)c1-c1cc(C(=O)N[C@@H](CCc2ccccc2)CC(=O)O)nn1CC(C)C		EC50 (Apelin receptor [2]): > 10 µM; EC50 (Apelin receptor [3]): > 10 µM; EC50 (Apelin receptor [4]): > 10 µM
CCCn1nc(C(=O)N[C@@H](CCC2CCCCC2)CC(=O)NC2CCC2)cc1-c1c(OC)cccc1OC	> 10	
CCC(=O)CNC(=O)[C@H](CCc1ccccc1)NC(=O)c1cc(-c2c(OC)cccc2OC)n(CC(C)C)n1	> 10	
CCC(=O)CNC(=O)C[C@H](CCC1CCCCC1)NC(=O)c1cc(-c2c(OC)cccc2OC)n(CC(C)C)n1	> 10	
COC(=O)CN(C)C(=O)[C@H](CCc1ccccc1)NC(=O)c1cc(-c2c(OC)cccc2OC)n(CC(C)C)n1	> 10	
COc1cccc(OC)c1-c1cc(C(=O)N[C@@H](CCC2CCCCC2)CC(=O)NC2CCC2)nn1C1CCCC1	> 10	
COc1cccc(OC)c1-c1cc(C(=O)N[C@@H](CCc2ccccc2)CC(=O)NC2CCC2)nn1CC(C)C	> 10	
COc1cccc(OC)c1-c1cc(C(=O)N[C@@H](CCC2CCCCC2)CC(=O)O)nn1-c1ccc(F)cc1	> 10	
CC[C@@H](O)CNC(=O)C[C@H](CCC1CCCCC1)NC(=O)c1cc(-c2c(OC)cccc2OC)n(CC(C)C)n1	> 10	
CCC(O)CNC(=O)C[C@H](CCC1CCCCC1)NC(=O)c1cc(-c2c(OC)cccc2OC)n(CC(C)C)n1 (some centres undefined)	> 10	
